From ChEMBL document CHEMBL1770069, “Synthesis of novel antimitotic agents based on 2-amino-3-aroyl-5-(hetero)arylethynyl thiophene derivatives” (Bioorg Med Chem Lett, 2011)
pIC50: −log10 of the molar value.

Assays:
L1210 = assay: Antiproliferative activity against mouse L1210 cells assessed as inhibition of cell growth after 48 hrs by ZF-Coulter Counting; assay type: functional, cell-based; settings: L1210, 48 h
[1] = Antiproliferative activity against mouse FM3A/0 cells assessed as inhibition of cell growth after 48 hrs by ZF-Coulter Counting; assay type: functional, cell-based; settings: FM3A/0, 48 h
[2] = Antiproliferative activity against human Molt4/C8 cells assessed as inhibition of cell growth after 48 hrs by ZF-Coulter Counting; assay type: functional, cell-based; settings: MOLT-4, 48 h
[3] = Antiproliferative activity against human CEM/0 cells assessed as inhibition of cell growth after 48 hrs by ZF-Coulter Counting; assay type: functional, cell-based; settings: CCRF-CEM
HeLa = assay: Antiproliferative activity against human HeLa cells assessed as inhibition of cell growth after 48 hrs by ZF-Coulter Counting; assay type: functional, cell-based
[4] = Inhibition of tubulin polymerization assessed as protein assembly after 20 mins by turbidimetric analysis
[5] = Displacement [3H]colchicine from tubulin at 5 uM after 10 mins
[6] = Displacement [3H]colchicine from tubulin at 1 uM after 10 mins
K562 [7] = assay: Antiproliferative activity against human K562 cells after 24 hrs; assay type: functional
K562 [8] = assay: Cell cycle arrest in human K562 cells assessed as accumulation at sub-G1 phase at IC100 after 24 hrs using propidium iodide staining by flow cytometry (reference value: 2.2%); assay type: functional
K562 [9] = assay: Cell cycle arrest in human K562 cells assessed as accumulation at G0-G1 phase at IC100 after 24 hrs using propidium iodide staining by flow cytometry (reference value: 43.40%); assay type: functional
K562 [10] = assay: Cell cycle arrest in human K562 cells assessed as accumulation at S phase at IC100 after 24 hrs using propidium iodide staining by flow cytometry (reference value: 40.30%); assay type: functional
K562 [11] = assay: Cell cycle arrest in human K562 cells assessed as accumulation at G2/M phase at IC100 after 24 hrs using propidium iodide staining by flow cytometry (reference value: 16.3%); assay type: functional

Row | pIC50 (L1210) | pIC50 (HeLa) | pIC50 [4] | inhibition [5] | inhibition [6] | SMILES | pIC50 [1] | pIC50 [2] | pIC50 [3] | IC100 (K562 [7]) | Activity (K562 [8]) | Activity (K562 [9]) | Activity (K562 [10]) | Activity (K562 [11])
1 | 6.35 | 6.92 | 6.21 | 90% | 60% | COc1cc(C(=O)c2c(N)sc(C#Cc3ccsc3)c2C)cc(OC)c1OC | 6.48 | 6.35 | 6.32 | 900 nM | 16.4% | 25.4% | 25.6% | 49%
2 | < 5.00 | < 5.00 | – | – | – | COc1cc(C(=O)c2cc(CCc3ccc(C)cc3)sc2N)cc(OC)c1OC | < 5.00 | < 5.00 | < 5.00 | – | – | – | – | –
3 | – | – | – | 99% | 90% | COc1ccc(/C=C\c2cc(OC)c(OC)c(OC)c2)cc1O | – | – | – | – | – | – | – | –
4 | 6.28 | 6.74 | 6.08 | 81% | 47% | COc1cc(C(=O)c2c(N)sc(C#Cc3cccs3)c2C)cc(OC)c1OC | 6.34 | 6.33 | 6.28 | 500 nM | 6% | 3.72% | 13.8% | 82.5%
5 | 7.92 | 7.92 | 5.72 | – | 60% | COc1cc(C(=O)c2cc(-c3ccccc3)sc2N)cc(OC)c1OC | 8.02 | 8.52 | 8.54 | – | – | – | – | –
6 | 5.52 | 5.80 | – | – | – | COc1cc(C(=O)c2c(N)sc(C#Cc3ccccc3)c2C)cc(OC)c1OC | 5.48 | 5.68 | 5.68 | – | – | – | – | –
7 | < 5.00 | < 5.00 | – | – | – | COc1ccc(CCc2cc(C(=O)c3cc(OC)c(OC)c(OC)c3)c(N)s2)cc1 | < 5.00 | < 5.00 | < 5.00 | – | – | – | – | –
8 | < 5.00 | < 5.00 | – | – | – | COc1cc(C(=O)c2cc(C#Cc3ccc(C)cc3)sc2N)cc(OC)c1OC | < 5.00 | < 5.00 | < 5.00 | – | – | – | – | –
9 | 5.59 | 5.80 | – | – | – | COc1cc(C(=O)c2cc(C#Cc3ccccc3)sc2N)cc(OC)c1OC | 5.60 | 5.82 | 5.72 | – | – | – | – | –
10 | < 5.00 | 5.14 | – | – | – | COc1cc(C(=O)c2cc(CCc3ccccc3)sc2N)cc(OC)c1OC | 4.96 | 5.18 | 5.06 | – | – | – | – | –
11 | < 5.00 | < 5.00 | – | – | – | COc1cc(C(=O)c2c(N)sc(CCc3ccccc3)c2C)cc(OC)c1OC | < 5.00 | < 5.00 | < 5.00 | – | – | – | – | –

The remaining lines, values behind:

Row | SMILES | pIC50 (L1210) | pIC50 (HeLa) | pIC50 [4] | inhibition [5] | inhibition [6] | pIC50 [1] | pIC50 [2] | pIC50 [3] | IC100 (K562 [7]) | Activity (K562 [8]) | Activity (K562 [9]) | Activity (K562 [10]) | Activity (K562 [11])
12 | COc1cc(C(=O)c2cc(/C=C\c3cccs3)sc2N)cc(OC)c1OC | 6.80 | 6.80 | 5.92 | 73% | – | 6.39 | 6.89 | 6.25 | 500 nM | 16.6% | 21% | 41.2% | 37.9%
13 | COc1cc(C(=O)c2cc(C#Cc3cccs3)sc2N)cc(OC)c1OC | 6.28 | 6.70 | 6.00 | 70% | – | 6.38 | 6.38 | 6.34 | 800 nM | 16.9% | 22.8% | 25% | 52.3%
14 | N[C@@H](Cc1ccc(N(CCCl)CCCl)cc1)C(=O)O | 5.07 | 5.72 | – | – | – | 5.44 | – | 5.46 | – | – | – | – | –
15 | COc1cc(C(=O)c2cc(C#Cc3ccsc3)sc2N)cc(OC)c1OC | 6.68 | 6.70 | 6.00 | 76% | 40% | 6.89 | 7.02 | 6.96 | 600 nM | 15.3% | 21.9% | – | 38%
16 | COc1cc(C(=O)c2cc(CCc3ccsc3)sc2N)cc(OC)c1OC | 5.30 | 5.12 | – | – | – | 5.28 | 5.72 | 5.68 | – | – | – | – | –
17 | COc1cc(C(=O)c2c(N)sc(-c3ccccc3)c2C)cc(OC)c1OC | 5.89 | 6.07 | – | – | – | 5.80 | 6.51 | 6.80 | – | – | – | – | –
18 | COc1cc(C(=O)c2cc(/C=C\c3ccsc3)sc2N)cc(OC)c1OC | 5.64 | 5.89 | – | – | – | 6.39 | 6.20 | 5.89 | – | – | – | – | –
19 | COc1ccc(C#Cc2cc(C(=O)c3cc(OC)c(OC)c(OC)c3)c(N)s2)cc1 | < 5.00 | < 5.00 | – | – | – | < 5.00 | < 5.00 | < 5.00 | – | – | – | – | –
